Experimental data as given in the kinase profiling compilation of Christmann-Franck et al. (2016).

Experiments:
Test in all cases: KINOMEscan competition binding
Conditions in all cases: compound 10.0 µM
AAK1 (human) = AAK1 (human) (UniProt Q2M2I8)
[1] = system: ABL1 (human), P00519 [Y253F]
AKT3 (human) = AKT3 (human) (UniProt Q9Y243)
BTK (human) = BTK (human) (UniProt Q06187)
CAMK2B (human) = CAMK2B (human) (UniProt Q13554)
EPHA2 (human) = EPHA2 (human) (UniProt P29317)
EPHA7 (human) = EPHA7 (human) (UniProt Q15375)
FES (human) = FES (human) (UniProt P07332)
Chain of FES (human) (P07332 whole entry, looked up): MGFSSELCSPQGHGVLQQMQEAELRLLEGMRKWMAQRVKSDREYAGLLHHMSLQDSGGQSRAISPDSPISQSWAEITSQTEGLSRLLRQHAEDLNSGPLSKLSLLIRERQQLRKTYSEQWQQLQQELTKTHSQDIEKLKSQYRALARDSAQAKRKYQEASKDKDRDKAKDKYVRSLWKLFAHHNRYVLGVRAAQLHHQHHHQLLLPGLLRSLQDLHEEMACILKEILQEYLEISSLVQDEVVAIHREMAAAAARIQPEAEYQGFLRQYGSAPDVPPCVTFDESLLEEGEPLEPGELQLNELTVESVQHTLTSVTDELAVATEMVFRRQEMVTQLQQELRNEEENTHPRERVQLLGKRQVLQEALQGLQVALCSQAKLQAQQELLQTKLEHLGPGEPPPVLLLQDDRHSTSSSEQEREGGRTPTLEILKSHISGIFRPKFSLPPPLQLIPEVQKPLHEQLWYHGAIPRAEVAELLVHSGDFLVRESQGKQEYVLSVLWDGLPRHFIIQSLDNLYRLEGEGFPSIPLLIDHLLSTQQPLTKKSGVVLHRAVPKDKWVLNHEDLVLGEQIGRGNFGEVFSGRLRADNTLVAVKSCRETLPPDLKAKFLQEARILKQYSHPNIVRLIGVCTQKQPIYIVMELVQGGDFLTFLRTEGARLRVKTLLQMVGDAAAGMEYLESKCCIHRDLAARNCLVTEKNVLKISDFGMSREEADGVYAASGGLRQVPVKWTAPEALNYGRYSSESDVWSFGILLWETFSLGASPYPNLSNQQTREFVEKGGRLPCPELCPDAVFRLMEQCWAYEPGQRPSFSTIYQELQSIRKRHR

FRK (human) = FRK (human) (UniProt P42685)
FYN (human) = FYN (human) (UniProt P06241)
MAP3K4 (human) = MAP3K4 (human) (UniProt Q9Y6R4)
MAP3K7 (human) = MAP3K7 (human) (UniProt O43318)
MAPK4 (human) = MAPK4 (human) (UniProt P31152)
MAPK7 (human) = MAPK7 (human) (UniProt Q13164)
MYLK3 (human) = MYLK3 (human) (UniProt Q32MK0)
MYO3B (human) = MYO3B (human) (UniProt Q8WXR4)
NEK4 (human) = NEK4 (human) (UniProt P51957)
NEK5 (human) = NEK5 (human) (UniProt Q6P3R8)
NEK6 (human) = NEK6 (human) (UniProt Q9HC98)
NIM1 (human) = NIM1 (human) (UniProt Q8IY84)
Chain of NIM1 (human) (Q8IY84 whole entry, looked up): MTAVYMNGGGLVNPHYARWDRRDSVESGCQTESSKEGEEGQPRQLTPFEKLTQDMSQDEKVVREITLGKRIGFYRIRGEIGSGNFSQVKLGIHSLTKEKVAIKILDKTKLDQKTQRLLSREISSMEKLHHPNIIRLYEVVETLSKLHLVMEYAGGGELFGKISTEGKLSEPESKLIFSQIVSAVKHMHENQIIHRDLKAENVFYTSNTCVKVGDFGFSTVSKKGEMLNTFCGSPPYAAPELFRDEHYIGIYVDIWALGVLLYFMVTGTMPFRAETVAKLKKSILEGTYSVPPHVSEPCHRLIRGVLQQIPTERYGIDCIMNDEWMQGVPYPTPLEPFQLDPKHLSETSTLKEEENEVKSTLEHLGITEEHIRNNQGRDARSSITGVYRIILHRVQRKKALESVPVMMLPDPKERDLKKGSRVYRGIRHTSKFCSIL

PDGFRB (human) = PDGFRB (human) (UniProt P09619)
PIP5K1A (human) = PIP5K1A (human) (UniProt Q99755)
PKMYT1 (human) = PKMYT1 (human) (UniProt Q99640)
PLK1 (human) = PLK1 (human) (UniProt P53350)
PRKG2 (human) = PRKG2 (human) (UniProt Q13237)
PRKX (human) = PRKX (human) (UniProt P51817)
Chain of PRKX (human) (P51817 whole entry, looked up): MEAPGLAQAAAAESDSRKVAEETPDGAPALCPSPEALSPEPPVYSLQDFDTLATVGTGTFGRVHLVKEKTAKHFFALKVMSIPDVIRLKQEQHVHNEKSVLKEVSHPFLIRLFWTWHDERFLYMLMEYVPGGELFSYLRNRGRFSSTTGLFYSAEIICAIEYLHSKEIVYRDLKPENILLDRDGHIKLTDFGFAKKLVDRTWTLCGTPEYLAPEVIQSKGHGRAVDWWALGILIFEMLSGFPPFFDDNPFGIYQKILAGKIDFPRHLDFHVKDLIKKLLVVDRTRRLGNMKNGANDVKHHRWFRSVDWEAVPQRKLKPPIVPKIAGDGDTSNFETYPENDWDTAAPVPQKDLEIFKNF

PTK2 (human) = PTK2 (human) (UniProt Q05397)
RIOK3 (human) = RIOK3 (human) (UniProt O14730)
ROS1 (human) = ROS1 (human) (UniProt P08922)
RPS6KB1 (human) = RPS6KB1 (human) (UniProt P23443)
SGK110 (human) = SGK110 (human) (UniProt P0C264)
SIK3 (human) = SIK3 (human) (UniProt Q9Y2K2)
STK11 (human) = STK11 (human) (UniProt Q15831)
STK16 (human) = STK16 (human) (UniProt O75716)
STK17A (human) = STK17A (human) (UniProt Q9UEE5)
Chain of STK17A (human) (Q9UEE5 whole entry, looked up): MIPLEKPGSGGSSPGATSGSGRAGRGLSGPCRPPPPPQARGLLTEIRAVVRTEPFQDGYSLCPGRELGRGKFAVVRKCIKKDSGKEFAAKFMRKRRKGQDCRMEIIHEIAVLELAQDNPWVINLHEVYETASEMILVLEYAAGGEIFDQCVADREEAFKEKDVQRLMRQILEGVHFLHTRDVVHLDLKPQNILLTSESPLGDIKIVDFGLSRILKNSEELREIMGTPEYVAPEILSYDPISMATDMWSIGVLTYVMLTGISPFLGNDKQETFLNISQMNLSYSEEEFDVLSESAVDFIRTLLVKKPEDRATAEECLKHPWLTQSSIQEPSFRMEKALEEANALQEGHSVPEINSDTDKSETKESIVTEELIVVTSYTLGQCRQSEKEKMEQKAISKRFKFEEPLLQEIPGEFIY

STK32C (human) = STK32C (human) (UniProt Q86UX6)
TNK2 (human) = TNK2 (human) (UniProt Q07912)
Chain of TNK2 (human) (Q07912 whole entry, looked up): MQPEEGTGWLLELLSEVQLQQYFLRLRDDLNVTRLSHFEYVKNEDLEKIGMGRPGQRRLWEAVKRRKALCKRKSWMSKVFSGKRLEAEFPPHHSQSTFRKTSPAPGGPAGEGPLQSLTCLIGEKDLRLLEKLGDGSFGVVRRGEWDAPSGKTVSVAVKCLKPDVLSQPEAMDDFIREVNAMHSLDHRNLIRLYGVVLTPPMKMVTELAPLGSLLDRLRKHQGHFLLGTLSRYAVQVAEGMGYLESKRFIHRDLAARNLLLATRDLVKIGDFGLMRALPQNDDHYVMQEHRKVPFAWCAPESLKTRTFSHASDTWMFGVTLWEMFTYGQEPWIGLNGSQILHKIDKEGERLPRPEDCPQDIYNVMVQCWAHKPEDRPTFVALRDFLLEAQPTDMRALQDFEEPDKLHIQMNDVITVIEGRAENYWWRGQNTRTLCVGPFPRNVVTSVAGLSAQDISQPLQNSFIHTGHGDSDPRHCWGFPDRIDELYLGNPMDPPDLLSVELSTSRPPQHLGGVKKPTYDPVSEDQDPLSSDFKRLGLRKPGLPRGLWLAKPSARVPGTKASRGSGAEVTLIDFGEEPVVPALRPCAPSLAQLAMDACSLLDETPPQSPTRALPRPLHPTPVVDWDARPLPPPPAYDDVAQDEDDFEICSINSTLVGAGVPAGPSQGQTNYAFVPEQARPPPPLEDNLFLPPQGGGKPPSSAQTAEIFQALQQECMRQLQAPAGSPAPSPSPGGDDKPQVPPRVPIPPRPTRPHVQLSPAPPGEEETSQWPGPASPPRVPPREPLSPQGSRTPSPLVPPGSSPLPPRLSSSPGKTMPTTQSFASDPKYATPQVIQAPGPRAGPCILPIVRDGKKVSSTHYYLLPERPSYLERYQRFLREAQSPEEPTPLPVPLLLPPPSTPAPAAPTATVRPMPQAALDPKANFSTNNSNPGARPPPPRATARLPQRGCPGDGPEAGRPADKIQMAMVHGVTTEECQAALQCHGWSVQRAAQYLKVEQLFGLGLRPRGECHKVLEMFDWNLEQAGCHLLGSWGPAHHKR

TNNI3K (human) = TNNI3K (human) (UniProt Q59H18)
Chain of TNNI3K (human) (Q59H18 whole entry, looked up): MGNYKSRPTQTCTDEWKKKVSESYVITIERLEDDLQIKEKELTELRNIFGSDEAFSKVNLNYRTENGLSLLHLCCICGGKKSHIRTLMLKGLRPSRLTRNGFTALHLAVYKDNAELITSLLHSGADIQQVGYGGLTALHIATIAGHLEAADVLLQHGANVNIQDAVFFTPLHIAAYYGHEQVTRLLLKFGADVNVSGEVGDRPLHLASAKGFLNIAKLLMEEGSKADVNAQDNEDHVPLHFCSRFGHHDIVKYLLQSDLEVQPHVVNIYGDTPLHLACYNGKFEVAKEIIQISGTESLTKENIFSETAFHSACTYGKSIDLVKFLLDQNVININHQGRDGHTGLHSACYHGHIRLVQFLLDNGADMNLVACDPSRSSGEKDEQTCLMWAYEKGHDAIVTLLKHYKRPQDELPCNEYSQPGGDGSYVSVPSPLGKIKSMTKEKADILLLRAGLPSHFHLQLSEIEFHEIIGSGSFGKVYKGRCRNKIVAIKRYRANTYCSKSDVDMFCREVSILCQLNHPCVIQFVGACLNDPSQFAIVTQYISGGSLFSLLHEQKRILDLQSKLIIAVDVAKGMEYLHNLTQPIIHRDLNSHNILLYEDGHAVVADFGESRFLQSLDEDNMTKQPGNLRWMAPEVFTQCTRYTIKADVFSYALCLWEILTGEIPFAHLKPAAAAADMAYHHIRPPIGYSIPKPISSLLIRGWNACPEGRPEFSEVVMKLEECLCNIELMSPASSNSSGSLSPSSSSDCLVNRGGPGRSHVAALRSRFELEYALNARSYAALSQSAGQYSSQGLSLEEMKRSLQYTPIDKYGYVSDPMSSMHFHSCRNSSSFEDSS

TYRO3 (human) = TYRO3 (human) (UniProt Q06418)
ABL2 (human) = ABL2 (human) (UniProt P42684)
PIK3CA (human) = PIK3CA (human) (UniProt P42336)

Chain of AKT3 (human) (Q9Y243 whole entry, looked up): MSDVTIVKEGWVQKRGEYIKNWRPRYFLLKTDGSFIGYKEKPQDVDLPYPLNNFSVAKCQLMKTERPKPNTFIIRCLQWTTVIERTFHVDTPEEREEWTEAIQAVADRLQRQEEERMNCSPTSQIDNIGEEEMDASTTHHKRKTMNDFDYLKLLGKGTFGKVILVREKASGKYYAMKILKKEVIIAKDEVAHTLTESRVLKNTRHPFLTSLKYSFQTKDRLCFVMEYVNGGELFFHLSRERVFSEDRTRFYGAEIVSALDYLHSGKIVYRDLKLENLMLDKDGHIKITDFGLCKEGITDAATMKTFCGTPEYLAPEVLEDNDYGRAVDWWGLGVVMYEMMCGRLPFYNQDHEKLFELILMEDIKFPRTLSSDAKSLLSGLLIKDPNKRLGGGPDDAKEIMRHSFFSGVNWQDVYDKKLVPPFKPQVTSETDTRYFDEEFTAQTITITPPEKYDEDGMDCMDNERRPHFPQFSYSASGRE
Chain of BTK (human) (Q06187 whole entry, looked up): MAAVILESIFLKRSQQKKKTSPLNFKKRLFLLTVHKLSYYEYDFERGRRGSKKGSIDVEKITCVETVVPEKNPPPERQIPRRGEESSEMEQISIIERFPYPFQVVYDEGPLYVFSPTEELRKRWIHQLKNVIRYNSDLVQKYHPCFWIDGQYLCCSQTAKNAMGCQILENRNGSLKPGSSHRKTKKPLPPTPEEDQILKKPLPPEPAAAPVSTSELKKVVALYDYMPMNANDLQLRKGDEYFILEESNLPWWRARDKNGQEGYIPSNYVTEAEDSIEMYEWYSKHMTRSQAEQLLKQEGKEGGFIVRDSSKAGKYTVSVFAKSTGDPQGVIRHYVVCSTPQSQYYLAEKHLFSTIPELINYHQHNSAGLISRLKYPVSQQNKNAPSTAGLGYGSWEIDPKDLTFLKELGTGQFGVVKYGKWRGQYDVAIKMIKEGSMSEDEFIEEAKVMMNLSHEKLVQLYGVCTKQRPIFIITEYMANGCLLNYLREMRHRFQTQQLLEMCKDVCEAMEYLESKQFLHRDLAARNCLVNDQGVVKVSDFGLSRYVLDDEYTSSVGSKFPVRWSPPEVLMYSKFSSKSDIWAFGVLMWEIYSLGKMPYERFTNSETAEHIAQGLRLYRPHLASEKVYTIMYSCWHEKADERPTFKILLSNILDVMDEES

SMILES: COc1cc2ncn(-c3cc(OCc4ccccc4C(F)(F)F)c(C(N)=O)s3)c2cc1OC
- kinase still bound, per cent of control (AAK1 (human)): 28%
- kinase still bound, per cent of control [1]: 88%
- kinase still bound, per cent of control (AKT3 (human)): 100%
- kinase still bound, per cent of control (BTK (human)): 86%
- kinase still bound, per cent of control (CAMK2B (human)): 75%
- kinase still bound, per cent of control (EPHA2 (human)): 44%
- kinase still bound, per cent of control (EPHA7 (human)): 79%
- kinase still bound, per cent of control (FES (human)): 87%
- kinase still bound, per cent of control (FRK (human)): 82%
- kinase still bound, per cent of control (FYN (human)): 48%
- kinase still bound, per cent of control (MAP3K4 (human)): 90%
- kinase still bound, per cent of control (MAP3K7 (human)): 66%
- kinase still bound, per cent of control (MAPK4 (human)): 100%
- kinase still bound, per cent of control (MAPK7 (human)): 100%
- kinase still bound, per cent of control (MYLK3 (human)): 100%
- kinase still bound, per cent of control (MYO3B (human)): 100%
- kinase still bound, per cent of control (NEK4 (human)): 52%
- kinase still bound, per cent of control (NEK5 (human)): 36%
- kinase still bound, per cent of control (NEK6 (human)): 87%
- kinase still bound, per cent of control (NIM1 (human)): 88%
- kinase still bound, per cent of control (PDGFRB (human)): 5.3%
- kinase still bound, per cent of control (PIP5K1A (human)): 3.4%
- kinase still bound, per cent of control (PKMYT1 (human)): 60%
- kinase still bound, per cent of control (PLK1 (human)): 0.1%
- kinase still bound, per cent of control (PRKG2 (human)): 86%
- kinase still bound, per cent of control (PRKX (human)): 98%
- kinase still bound, per cent of control (PTK2 (human)): 83%
- kinase still bound, per cent of control (RIOK3 (human)): 4.2%
- kinase still bound, per cent of control (ROS1 (human)): 78%
- kinase still bound, per cent of control (RPS6KB1 (human)): 65%
- kinase still bound, per cent of control (SGK110 (human)): 100%
- kinase still bound, per cent of control (SIK3 (human)): 76%
- kinase still bound, per cent of control (STK11 (human)): 37%
- kinase still bound, per cent of control (STK16 (human)): 49%
- kinase still bound, per cent of control (STK17A (human)): 100%
- kinase still bound, per cent of control (STK32C (human)): 100%
- kinase still bound, per cent of control (TNK2 (human)): 54%
- kinase still bound, per cent of control (TNNI3K (human)): 81%
- kinase still bound, per cent of control (TYRO3 (human)): 72%

SMILES: N#CCNC(=O)c1ccc(-c2ccnc(Nc3ccc(N4CCOCC4)cc3)n2)cc1
- kinase still bound, per cent of control (AAK1 (human)): 3.9%
- kinase still bound, per cent of control [1]: 61%
- kinase still bound, per cent of control (ABL2 (human)): 57%
- kinase still bound, per cent of control (AKT3 (human)): 100%
- kinase still bound, per cent of control (BTK (human)): 75%
- kinase still bound, per cent of control (CAMK2B (human)): 14%
- kinase still bound, per cent of control (EPHA2 (human)): 100%
- kinase still bound, per cent of control (EPHA7 (human)): 96%
- kinase still bound, per cent of control (FES (human)): 100%
- kinase still bound, per cent of control (FRK (human)): 98%
- kinase still bound, per cent of control (FYN (human)): 78%
- kinase still bound, per cent of control (MAP3K4 (human)): 92%
- kinase still bound, per cent of control (MAP3K7 (human)): 49%
- kinase still bound, per cent of control (MAPK4 (human)): 93%
- kinase still bound, per cent of control (MAPK7 (human)): 48%
- kinase still bound, per cent of control (MYLK3 (human)): 68%
- kinase still bound, per cent of control (MYO3B (human)): 100%
- kinase still bound, per cent of control (NEK4 (human)): 100%
- kinase still bound, per cent of control (NEK5 (human)): 2.4%
- kinase still bound, per cent of control (NEK6 (human)): 6.2%
- kinase still bound, per cent of control (NIM1 (human)): 100%
- kinase still bound, per cent of control (PDGFRB (human)): 2.2%
- kinase still bound, per cent of control (PIP5K1A (human)): 39%
- kinase still bound, per cent of control (PKMYT1 (human)): 100%
- kinase still bound, per cent of control (PLK1 (human)): 100%
- kinase still bound, per cent of control (PRKG2 (human)): 100%
- kinase still bound, per cent of control (PRKX (human)): 74%
- kinase still bound, per cent of control (PTK2 (human)): 85%
- kinase still bound, per cent of control (RIOK3 (human)): 0%
- kinase still bound, per cent of control (ROS1 (human)): 100%
- kinase still bound, per cent of control (RPS6KB1 (human)): 100%
- kinase still bound, per cent of control (SGK110 (human)): 83%
- kinase still bound, per cent of control (SIK3 (human)): 100%
- kinase still bound, per cent of control (STK11 (human)): 61%
- kinase still bound, per cent of control (STK16 (human)): 6.2%
- kinase still bound, per cent of control (STK17A (human)): 0.2%
- kinase still bound, per cent of control (STK32C (human)): 100%
- kinase still bound, per cent of control (TNK2 (human)): 93%
- kinase still bound, per cent of control (TNNI3K (human)): 100%
- kinase still bound, per cent of control (TYRO3 (human)): 100%

SMILES: COCC(=O)NC/C=C/c1ccc2ncnc(Nc3ccc(Oc4ccc(C)nc4)c(C)c3)c2c1
- kinase still bound, per cent of control (AAK1 (human)): 100%
- kinase still bound, per cent of control (ABL2 (human)): 100%
- kinase still bound, per cent of control (AKT3 (human)): 100%
- kinase still bound, per cent of control (BTK (human)): 68%
- kinase still bound, per cent of control (CAMK2B (human)): 88%
- kinase still bound, per cent of control (EPHA2 (human)): 100%
- kinase still bound, per cent of control (EPHA7 (human)): 100%
- kinase still bound, per cent of control (FES (human)): 100%
- kinase still bound, per cent of control (FRK (human)): 100%
- kinase still bound, per cent of control (FYN (human)): 100%
- kinase still bound, per cent of control (MAP3K4 (human)): 97%
- kinase still bound, per cent of control (MAP3K7 (human)): 100%
- kinase still bound, per cent of control (MAPK4 (human)): 100%
- kinase still bound, per cent of control (MAPK7 (human)): 100%
- kinase still bound, per cent of control (MYLK3 (human)): 100%
- kinase still bound, per cent of control (MYO3B (human)): 100%
- kinase still bound, per cent of control (NEK4 (human)): 100%
- kinase still bound, per cent of control (NEK5 (human)): 100%
- kinase still bound, per cent of control (NEK6 (human)): 100%
- kinase still bound, per cent of control (NIM1 (human)): 87%
- kinase still bound, per cent of control (PDGFRB (human)): 46%
- kinase still bound, per cent of control (PIK3CA (human)): 100%
- kinase still bound, per cent of control (PIP5K1A (human)): 88%
- kinase still bound, per cent of control (PKMYT1 (human)): 100%
- kinase still bound, per cent of control (PLK1 (human)): 81%
- kinase still bound, per cent of control (PRKG2 (human)): 100%
- kinase still bound, per cent of control (PRKX (human)): 100%
- kinase still bound, per cent of control (RIOK3 (human)): 100%
- kinase still bound, per cent of control (ROS1 (human)): 100%
- kinase still bound, per cent of control (RPS6KB1 (human)): 65%
- kinase still bound, per cent of control (SGK110 (human)): 100%
- kinase still bound, per cent of control (SIK3 (human)): 76%
- kinase still bound, per cent of control (STK17A (human)): 84%
- kinase still bound, per cent of control (STK32C (human)): 86%
- kinase still bound, per cent of control (TNK2 (human)): 78%
- kinase still bound, per cent of control (TNNI3K (human)): 100%
- kinase still bound, per cent of control (TYRO3 (human)): 80%
